One test addresses c-Met (Homo sapiens, UniProt P08581). Nature of the test: c-Met kinase assay as described in WO 2005/030140 A2. Conditions: assays described in WO 2005/030140 A2. It is filed as biochemical. The text has this:
(§1) Other utilities of this compound are further described in WO 2005/030140 A2.

For a further test, the target named is c-Kit (Homo sapiens, UniProt P10721). Nature of the test: c-Kit kinase assay as described in WO 2005/030140 A2. The class given is biochemical. Conditions: assays described in WO 2005/030140 A2.
Description: as §1

From US20130030172A1, “Methods of Preparing Quinoline Derivatives” (Exelixis, Inc., priority 2008, published 2013) come the findings set out here.

Each structure is given as a SMILES string.

Sequence of c-Kit (P10721 26-976): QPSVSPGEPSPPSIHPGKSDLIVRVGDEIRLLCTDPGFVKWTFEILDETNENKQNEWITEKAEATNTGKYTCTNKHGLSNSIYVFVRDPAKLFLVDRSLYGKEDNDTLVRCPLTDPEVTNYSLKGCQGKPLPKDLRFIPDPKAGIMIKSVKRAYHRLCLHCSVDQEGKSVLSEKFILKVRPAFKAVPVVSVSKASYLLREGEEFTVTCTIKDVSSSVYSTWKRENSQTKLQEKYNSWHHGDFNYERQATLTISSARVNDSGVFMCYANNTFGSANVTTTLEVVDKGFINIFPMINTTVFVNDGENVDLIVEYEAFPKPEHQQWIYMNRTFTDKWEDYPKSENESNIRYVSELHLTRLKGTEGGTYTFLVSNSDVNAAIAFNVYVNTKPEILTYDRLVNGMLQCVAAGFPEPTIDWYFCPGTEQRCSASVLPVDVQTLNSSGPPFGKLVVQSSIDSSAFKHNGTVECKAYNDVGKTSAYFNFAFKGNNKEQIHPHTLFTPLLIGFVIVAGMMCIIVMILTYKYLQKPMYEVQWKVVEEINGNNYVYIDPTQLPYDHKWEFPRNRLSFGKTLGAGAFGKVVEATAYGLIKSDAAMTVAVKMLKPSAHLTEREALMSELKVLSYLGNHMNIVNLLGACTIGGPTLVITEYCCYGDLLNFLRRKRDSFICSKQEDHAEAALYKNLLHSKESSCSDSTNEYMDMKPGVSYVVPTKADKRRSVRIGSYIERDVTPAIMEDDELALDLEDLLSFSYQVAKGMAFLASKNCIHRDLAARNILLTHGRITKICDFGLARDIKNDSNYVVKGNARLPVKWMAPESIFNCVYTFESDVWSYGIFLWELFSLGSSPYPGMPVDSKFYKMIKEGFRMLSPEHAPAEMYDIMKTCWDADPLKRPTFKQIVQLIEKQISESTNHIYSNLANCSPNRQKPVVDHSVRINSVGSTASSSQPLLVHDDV
Sequence of c-Met (P08581 25-1390): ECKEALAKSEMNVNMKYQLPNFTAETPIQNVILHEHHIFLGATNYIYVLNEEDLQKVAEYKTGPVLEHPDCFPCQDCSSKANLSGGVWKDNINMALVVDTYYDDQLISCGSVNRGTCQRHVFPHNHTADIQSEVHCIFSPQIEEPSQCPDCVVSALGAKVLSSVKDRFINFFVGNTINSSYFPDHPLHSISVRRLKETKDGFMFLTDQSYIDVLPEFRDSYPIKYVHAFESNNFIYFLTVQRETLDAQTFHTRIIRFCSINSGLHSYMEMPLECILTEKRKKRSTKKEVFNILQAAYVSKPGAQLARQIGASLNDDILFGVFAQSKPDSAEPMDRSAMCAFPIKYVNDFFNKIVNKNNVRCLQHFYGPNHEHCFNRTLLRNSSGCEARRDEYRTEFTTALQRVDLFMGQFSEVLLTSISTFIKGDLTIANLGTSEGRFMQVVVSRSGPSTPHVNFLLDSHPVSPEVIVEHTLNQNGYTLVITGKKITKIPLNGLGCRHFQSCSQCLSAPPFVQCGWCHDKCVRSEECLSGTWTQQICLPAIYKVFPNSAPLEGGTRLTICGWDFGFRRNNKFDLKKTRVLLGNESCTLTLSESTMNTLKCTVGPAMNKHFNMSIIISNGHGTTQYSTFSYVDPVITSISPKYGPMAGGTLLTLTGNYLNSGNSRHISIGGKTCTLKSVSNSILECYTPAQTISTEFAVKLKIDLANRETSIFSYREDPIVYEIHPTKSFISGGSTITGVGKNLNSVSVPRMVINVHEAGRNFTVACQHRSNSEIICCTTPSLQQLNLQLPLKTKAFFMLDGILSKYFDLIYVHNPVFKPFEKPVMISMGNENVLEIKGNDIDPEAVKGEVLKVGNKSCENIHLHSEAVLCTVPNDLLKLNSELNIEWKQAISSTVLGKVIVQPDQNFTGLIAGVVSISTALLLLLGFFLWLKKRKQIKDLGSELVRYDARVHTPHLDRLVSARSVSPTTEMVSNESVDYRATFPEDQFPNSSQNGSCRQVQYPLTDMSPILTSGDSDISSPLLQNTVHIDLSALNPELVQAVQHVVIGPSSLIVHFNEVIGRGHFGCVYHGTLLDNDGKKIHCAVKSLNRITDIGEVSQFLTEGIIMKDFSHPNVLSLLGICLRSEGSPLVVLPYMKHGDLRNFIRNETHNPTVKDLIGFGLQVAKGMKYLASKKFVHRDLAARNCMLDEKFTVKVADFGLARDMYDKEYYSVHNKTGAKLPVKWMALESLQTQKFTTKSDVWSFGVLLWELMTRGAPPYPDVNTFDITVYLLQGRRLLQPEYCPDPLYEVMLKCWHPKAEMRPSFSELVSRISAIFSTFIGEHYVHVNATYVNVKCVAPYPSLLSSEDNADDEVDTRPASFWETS

For `COc1cc2c(Oc3ccc(NC(=O)C(=O)NCCc4ccccc4)cc3F)ccnc2cc1OCCCN1CCOCC1` [title compound, N-{3-Fluoro-4-[6-methoxy-7-(3-morpholin-4-yl-propoxy)-quinolin-4-yloxy]-phenyl}-N′-phenethyl-oxalamide], the IC50 on c-Met and at c-Kit was < 50 nM each time.

By IC50 is commonly meant the midpoint of a concentration-inhibition curve.
